Experimental data reported in ChEMBL document CHEMBL1125501, “Probes for narcotic receptor mediated phenomena. 18. Epimeric 6 alpha- and 6 beta-iodo-3,14-dihydroxy-17-(cyclopropylmethyl)-4,5 alpha-epoxymorphinans as potential ligands for opioid receptor single photon emission computed tomography: synthesis, evaluation, and radiochemistry of [125I]-6 …” (J Med Chem, 1992).

How the values were obtained:
Mu-type opioid receptor [1] = target: T1, Mu-type opioid receptor (Rattus norvegicus, UniProt P33535); format: cell membranes, Brain, Brain membranes
T1 sequence (P33535 whole entry): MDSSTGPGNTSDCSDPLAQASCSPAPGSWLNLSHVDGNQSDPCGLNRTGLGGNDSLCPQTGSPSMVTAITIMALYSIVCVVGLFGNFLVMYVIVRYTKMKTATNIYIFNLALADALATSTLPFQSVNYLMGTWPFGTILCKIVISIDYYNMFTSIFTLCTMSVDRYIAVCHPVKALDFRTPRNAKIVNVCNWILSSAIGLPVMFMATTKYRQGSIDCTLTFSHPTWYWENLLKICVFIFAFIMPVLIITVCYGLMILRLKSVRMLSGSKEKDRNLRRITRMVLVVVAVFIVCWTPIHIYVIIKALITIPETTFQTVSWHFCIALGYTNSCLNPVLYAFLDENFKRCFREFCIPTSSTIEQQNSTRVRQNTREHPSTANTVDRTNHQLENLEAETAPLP

[2] = target: T2, Kappa-type opioid receptor (Cavia porcellus, UniProt P41144); test: In vito concentration required to displace 9 (Kd = […] and concentration is 1.8 nM) from opioid receptor kappa 2 in guinea brain membranes.; format: cell membranes
T2 sequence (P41144 whole entry): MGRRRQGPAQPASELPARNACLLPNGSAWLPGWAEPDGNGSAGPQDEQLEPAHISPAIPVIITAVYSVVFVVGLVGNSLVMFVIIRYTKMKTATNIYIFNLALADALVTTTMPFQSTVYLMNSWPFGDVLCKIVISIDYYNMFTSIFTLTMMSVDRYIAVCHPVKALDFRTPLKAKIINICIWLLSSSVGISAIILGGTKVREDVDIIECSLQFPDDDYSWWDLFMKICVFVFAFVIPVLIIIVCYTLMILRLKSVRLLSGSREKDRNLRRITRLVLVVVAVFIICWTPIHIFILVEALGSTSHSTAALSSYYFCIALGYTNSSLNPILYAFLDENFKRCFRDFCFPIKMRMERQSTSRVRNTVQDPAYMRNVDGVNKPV

[3] = target: T2, Kappa-type opioid receptor; test: In vito concentration required to displace [3H]BRM (Kd = 1.0 nM and concentration is 1.8 nM) from opioid receptor kappa 2 in guinea brain membranes.; format: cell membranes
Mu-type opioid receptor [4] = target: T1, Mu-type opioid receptor; format: cell membranes, Brain, Brain membranes; remark: listed apart in the source
[5] = target: T3, Delta-type opioid receptor (Rattus norvegicus, UniProt P33533); test: In vito concentration required to displace [3H]DADLE (Kd = 12.2 nM and concentration is 2.1 nM) from low affinity delta-site in rat brain membranes.; format: cell membranes
T3 sequence (P33533 whole entry): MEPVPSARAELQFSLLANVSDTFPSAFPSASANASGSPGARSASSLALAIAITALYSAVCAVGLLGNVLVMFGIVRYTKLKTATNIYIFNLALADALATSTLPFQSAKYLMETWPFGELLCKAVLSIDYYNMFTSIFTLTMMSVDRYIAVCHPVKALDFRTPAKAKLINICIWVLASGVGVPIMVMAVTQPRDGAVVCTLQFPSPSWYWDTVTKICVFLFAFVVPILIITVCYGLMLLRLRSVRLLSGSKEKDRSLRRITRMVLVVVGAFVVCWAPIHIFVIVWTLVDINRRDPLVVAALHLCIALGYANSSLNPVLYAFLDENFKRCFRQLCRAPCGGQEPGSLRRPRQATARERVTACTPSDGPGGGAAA

[6] = target: T3, Delta-type opioid receptor; test: In vito concentration required to displace [3H]DADLE (Kd = […] and concentration is […]) from high affinity delta-site in rat brain membranes.; format: cell membranes
[7] = target: T3, Delta-type opioid receptor; test: In vito concentration required to displace [3H]-DADLE (Kd = 12.2 nM and concentration is 2.1 nM) from low affinity delta-site in rat brain membranes.; format: cell membranes
[8] = target: T2, Kappa-type opioid receptor; test: In vito concentration required to displace [3H]-BRM (Kd = 1.0 nM and concentration is 1.8 nM) from opioid receptor kappa 2 in guinea brain membranes.; format: cell membranes
[9] = target: T2, Kappa-type opioid receptor; test: In vito concentration required to displace 9 (Kd = […] and concentration is 1.8 nM) from opioid receptor kappa 1 in guinea brain membranes.; format: cell membranes
Mu-type opioid receptor [10] = target: T1, Mu-type opioid receptor; test: In vito concentration required to displace [3H]DAGO (Kd = 0.7 nM and concentration is […]) from opioid receptor mu in rat brain membranes.; format: cell membranes

SMILES | Ki (Mu-type opioid receptor [1]) [nM] | Ki [2] [nM] | IC50 [3] [nM] | IC50 (Mu-type opioid receptor [4]) [nM] | Ki [5] [nM] | IC50 [6] [nM] | IC50 [7] [nM] | Ki [8] [nM] | Ki [9] [nM] | IC50 (Mu-type opioid receptor [10]) [nM] | Ki (Mu-type opioid receptor [10]) [nM] | Ki [6] [nM] | IC50 [9] [nM]
Oc1ccc2c3c1O[C@H]1[C@H](I)CC[C@@]4(O)[C@@H](C2)N(CC2CC2)CC[C@]314 | 0.29 | 2.73 | 7.65 | 0.77 | 2.25 | 25.6 | 2.64 |  |  |  |  |  | 
Oc1ccc2c3c1O[C@H]1[C@@H](I)CC[C@@]4(O)[C@@H](C2)N(CC2CC2)CC[C@]314 | 1.65 |  | 23.7 | 4.34 | 6.88 |  | 8.06 | 8.46 |  |  |  |  | 
Oc1ccc2c3c1O[C@H]1[C@H](F)CC[C@@]4(O)[C@@H](C2)N(CC2CC2)CC[C@]314 | 3.42 |  | 66 | 8.98 | 13.8 | 268 | 16.2 |  | 3.71 | 11.4 | 3.32 | 122 | 
Oc1ccc2c3c1O[C@H]1[C@@H](Br)CC[C@@]4(O)[C@@H](C2)N(CC2CC2)CC[C@]314 | 1.19 |  | 20.2 | 3.14 | 4.92 | 4.3 | 5.77 | 7.21 | 0.32 | 4.21 | 1.23 | 1.96 | 0.7
